Measurements taken from PubChem BioAssay (NCI).
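A five-concentration, 48-hour dose response in 96-well plates underlies each endpoint, interpolated linearly between surrounding concentrations. At the GI50, growth is halved. TGI: concentration producing complete growth inhibition.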

Experiments:
Test in all cases: DTP human tumour cell line panel, 48 h
SW-620 colon = system: SW-620 colon
A549 NSCLC = system: A549 NSCLC
CAKI-1 renal = system: CAKI-1 renal
SN12C renal = system: SN12C renal
NCI-H460 lung = system: NCI-H460 lung
UO-31 renal = system: UO-31 renal
HCT-15 colon = system: HCT-15 colon
T-47D breast = system: T-47D breast
HL-60(TB) leukemia = system: HL-60(TB) leukemia
UACC-257 melanoma = system: UACC-257 melanoma

Structure (SMILES) | GI50 (SW-620 colon) | TGI (SW-620 colon) | GI50 (A549 NSCLC) | TGI (A549 NSCLC) | GI50 (CAKI-1 renal) | TGI (CAKI-1 renal) | GI50 (SN12C renal) | TGI (SN12C renal) | GI50 (NCI-H460 lung) | TGI (NCI-H460 lung) | GI50 (UO-31 renal) | TGI (UO-31 renal) | GI50 (HCT-15 colon) | TGI (HCT-15 colon) | GI50 (T-47D breast) | TGI (T-47D breast) | GI50 (HL-60(TB) leukemia) | TGI (HL-60(TB) leukemia) | GI50 (UACC-257 melanoma) | TGI (UACC-257 melanoma)
OCc1cccc(-c2ccc3ncc(-c4nc(NC5CC5)ncc4F)n3c2)c1 | 0.258 µM | 0.971 µM | 0.341 µM | > 100 µM | 0.153 µM | 1.65 µM | 0.281 µM | 1.57 µM | 0.249 µM | 0.825 µM | 0.3 µM | 1 µM | 0.267 µM | 1.39 µM | 0.274 µM | 3.93 µM | 0.243 µM | 0.708 µM | 0.372 µM | 1.79 µM
NC1C2C(CC(=O)O)OCC=C3CN4CCC1(C(=O)C(=O)O)C4CC32 (stereo not given) |  | > 100 µM |  | > 100 µM |  | > 100 µM |  | > 100 µM |  | > 100 µM |  | > 100 µM |  | > 100 µM |  | > 100 µM |  | > 100 µM |  | > 100 µM
CNc1nc(C)c(-c2nc(Nc3cccc(S(N)(=O)=O)c3)ncc2F)s1 | 0.0283 µM | 14.7 µM | 0.0874 µM | 15.2 µM | 0.052 µM | 37.2 µM | 0.0313 µM | 2.69 µM | 0.0776 µM | 3.89 µM | 0.035 µM | 0.505 µM | 0.048 µM | 12.1 µM | 0.0274 µM | 0.472 µM | 0.0309 µM | 0.108 µM | 0.0657 µM | 0.232 µM
O=CN1N=C(c2ccc(Nc3ccnc4cc(Cl)ccc34)cc2)CC1c1ccccc1 (stereo not given) | 2.73 µM | 9.43 µM | 4.05 µM | > 100 µM | 3.82 µM | 32.2 µM | 3.8 µM | > 100 µM | 3.96 µM | > 100 µM | 3.81 µM | > 100 µM | 2.54 µM | 14.4 µM | 2.18 µM | 7.42 µM | 2.66 µM | 6.21 µM | 10.1 µM | > 100 µM
COc1ccc(C2=CC(c3cc(OC)c(OC)c(OC)c3)NC(=O)N2)cc1OC (stereo not given) | 2.96 µM | 10.2 µM | 4.74 µM | > 100 µM | 2.26 µM | 9.32 µM | 2.42 µM | 8.33 µM | 1.92 µM | 5 µM | 2.54 µM | 12.8 µM | 2.9 µM | 17.7 µM | 2.63 µM | 28.9 µM | 1.57 µM | 6.52 µM | 10.8 µM | 23.2 µM
Nc1nc2c(c3ncccc13)C(c1ccc(Cl)c(Cl)c1)Cc1ncccc1-2 (stereo not given) | 3.5 µM | 19 µM | 4.24 µM | 15.3 µM | 3.9 µM | 20.5 µM | 6.71 µM | 24.8 µM | 3.47 µM | 13 µM | 4.99 µM | 22 µM | 4.36 µM | 16.1 µM | 2.39 µM | 13.4 µM | 3.09 µM | 16.2 µM | 13.2 µM | 26.4 µM
CNC(=O)c1c(NC(=O)c2cccc(C(F)(F)F)c2)sc2c1CCC(=O)C2 | 0.254 µM | 1.75 µM | 0.387 µM | > 34.3 µM | 0.282 µM | 1.22 µM | 0.361 µM | > 20.7 µM | 0.365 µM | > 100 µM | 0.197 µM | 0.77 µM | 0.249 µM | 1.51 µM | 0.305 µM | 2.29 µM | 0.318 µM | 1.98 µM | 1.9 µM | 7.3 µM
COc1cc2c(cc1OCCCOC1=C=C=C(c3ccc4c(c3)c3cc(-c5ccc(OCCCOc6cc7c(cc6OC)C(=O)N6CCC[C@H]6C=N7)cc5)ccc3n4S(=O)(=O)c3ccc(C)cc3)C=C1)N=C[C@@H]1CCCN1C2=O | 1.16 µM | 6.33 µM | 6.7 µM | 20.5 µM | 1.29 µM | 6.21 µM | 2 µM | 9.98 µM | 1.38 µM | 7.99 µM | 3.21 µM | 11.4 µM | 7 µM | 20.3 µM | 1.3 µM | 19.1 µM | 0.826 µM | > 11.4 µM | 6.71 µM | 15.6 µM
COc1ccc(C(O)c2cc3c(N)c(C(=O)Nc4cccc(Cl)c4C)sc3nc2C)cc1 (stereo not given) | 0.831 µM | 1.65 µM | 0.933 µM | 2.02 µM | 0.689 µM | 1.38 µM | 0.815 µM | 1.61 µM | 0.834 µM | 1.73 µM | 0.627 µM | 1.27 µM | 0.623 µM | 1.33 µM | 0.953 µM | 2.2 µM | 0.877 µM | 2.14 µM | 1 µM | 2.02 µM
Cc1cc(=O)c2cc(N=Cc3ccc([N+](=O)[O-])o3)ccc2o1 |  | > 100 µM |  | > 100 µM |  | > 100 µM |  | > 100 µM |  | > 100 µM |  | > 100 µM |  | > 100 µM |  | > 100 µM |  | > 100 µM |  | > 100 µM
C[C@]12CC/C(=N\N)C[C@@H]1CC[C@@H]1[C@@H]2CC[C@]2(C)/C(=N/N)CC[C@@H]12 | > 100 µM | > 100 µM | > 100 µM | > 100 µM | > 100 µM | > 100 µM | > 100 µM | > 100 µM | > 100 µM | > 100 µM | 51 µM | > 100 µM | > 100 µM | > 100 µM | > 100 µM | > 100 µM | > 100 µM | > 100 µM | > 100 µM | > 100 µM
O=C(Nc1ccc(Cl)cc1)c1cc2c(cc1O)[nH]c1ccccc12 | 3.4 µM | 13.4 µM | 2.85 µM | 10.3 µM | 2.26 µM | 6.02 µM | 2.93 µM | 11.3 µM | 3.11 µM | 10.2 µM | 2.86 µM | 12.9 µM | 3.24 µM | 13.1 µM | 2.37 µM | 6.78 µM | 4.43 µM | > 100 µM | 2.48 µM | 6.66 µM
CCCCCCCCCCCCCCCC(=O)OCC1OC(n2cnc3c(=S)nc(N)[nH]c32)C(OC(=O)CCCCCCCCCCCCCCC)C1OC(=O)CCCCCCCCCCCCCCC (stereo not given) | 11.1 µM | > 50 µM | > 37.2 µM | > 50 µM | 1.05 µM | > 14.8 µM | 18.3 µM | > 50 µM | 2.8 µM | > 22.6 µM | 9.49 µM | > 50 µM | 6.17 µM | > 50 µM | 2 µM | > 50 µM | > 35.6 µM | > 50 µM | > 50 µM | > 50 µM
